# Results as given in patent US20250302746A1, “METHOD FOR PRODUCING EMULSIFIED COMPOSITION” (Daicel Corporation, priority 2022, published 2025).
# Legend:
# [1] = Test Example 4: transmittance of emulsified composition (660 nm, optical path 10 mm); format: physicochemical; conditions: balance glycerol, heated 120° C. 3 min, 15000 rpm
# Description: (§1) The transmittance of the emulsified composition produced in this example was determined as a transmittance for light having a wave length of 660 nm at a measurement optical path length of 10 mm using an ultraviolet-visible spectrophotometer UV-1800 (manufactured by Shimadzu Corporation). In the following test, a case where the transmittance was less than 40% was indicated by “C”, a case where the transmittance was 40% or greater and less than 80% was indicated by “B”, and a case where the transmittance was 80% or greater was indicated by “A”.
# (§2) A solution having a composition of parts by weight shown in Table 4 (a solution in which the balance is glycerol and the total is 100 parts by weight) was prepared and heated at 120° C. for 3 minutes using a block heater. During being heated, the solution was mixed using a polytron homogenizer at 15000 rpm. Thereafter, the solution was allowed to stand at room temperature (about 25° C.) and the temperature of the solution was lowered to room temperature (about 25° C.) to produce an emulsified composition, and the transmittance was measured.
# [2] = Test Example 3: transmittance of emulsified composition (660 nm, optical path 10 mm); format: physicochemical; conditions: balance glycerol, 15000 rpm
# Description: as §1
# as §2, with “3” for “4”, “a heating temperature shown in Table 3” for “120° C.”
# [3] = cited from earlier work
# [4] = Test Example 1: transmittance of emulsified composition (660 nm, optical path 10 mm); format: physicochemical; conditions: balance glycerol, 10000 rpm
# Description: as §1
# as §2, with “1” for “4”, “a heating temperature shown in Table 1” for “120° C.”, “10000” for “15000”
# [5] = Test Example 2: transmittance of emulsified composition (660 nm, optical path 10 mm); format: physicochemical; conditions: balance glycerol, heated 120° C. 3 min, 15000 rpm
# Description: as §1
# as §2, with “2” for “4”
# [6] = urolithin 0.1, RYOTO polyglyester L-7D (HLB 17.0) 50 parts by weight
# [7] = urolithin 0.5, RYOTO polyglyester L-7D (HLB 17.0) 50 parts by weight
# [8] = Urolithin A 0.1, Decaglyn 1-LF (HLB 15.5) 5 parts by weight, heated 100° C. 3 min
# [9] = Urolithin A 0.1, Decaglyn 1-LF (HLB 15.5) 5 parts by weight, heated 120° C. 3 min
# [10] = Urolithin A 0.1, RYOTO polyglyester L-7D (HLB 17.0) 5 parts by weight, heated 100° C. 3 min
# [11] = Urolithin A 0.1, RYOTO polyglyester L-7D (HLB 17.0) 5 parts by weight, heated 120° C. 3 min
molecule,measurement,setting,value
"O=c1oc2c(O)c(O)ccc2c2c(O)c(O)c(O)cc12 [Urolithin M5, urolithin M5]",Transmittance results,[1]; [6],A (the transmittance was 80% or greater)
"O=c1oc2cc(O)ccc2c2c(O)c(O)c(O)cc12 [Urolithin M6, urolithin M6]",Transmittance results,[1]; [7],A (the transmittance was 80% or greater)
"O=c1oc2cc(O)ccc2c2cc(O)c(O)cc12 [Urolithin C, urolithin C]",Transmittance results,[1]; [6],A (the transmittance was 80% or greater)
"O=c1oc2cc(O)ccc2c2ccc(O)cc12 [Urolithin A, urolithin A]",Transmittance results,[2]; [8],C (the transmittance was less than 40%)
same,Transmittance results,"[2]; Urolithin A 0.1, Decaglyn 1-LF (HLB 15.5) 5 parts by weight, heated 105° C. 3 min",C (the transmittance was less than 40%)
same,Transmittance results,[2]; [9],B (the transmittance was 40% or greater and less than 80%)
same,Transmittance results,"[2]; Urolithin A 0.1, Decaglyn 1-LF (HLB 15.5) 50 parts by weight, heated 100° C. 3 min",C (the transmittance was less than 40%)
same,Transmittance results,"[2]; Urolithin A 0.1, Decaglyn 1-LF (HLB 15.5) 50 parts by weight, heated 105° C. 3 min",A (the transmittance was 80% or greater)
same,Transmittance results,"[2]; Urolithin A 0.1, Decaglyn 1-LF (HLB 15.5) 50 parts by weight, heated 120° C. 3 min",A (the transmittance was 80% or greater)
same,Transmittance results,[2]; [10],C (the transmittance was less than 40%)
same,Transmittance results,"[2]; Urolithin A 0.1, RYOTO polyglyester L-7D (HLB 17.0) 5 parts by weight, heated 105° C. 3 min",C (the transmittance was less than 40%)
same,Transmittance results,[2]; [11],A (the transmittance was 80% or greater)
same,Transmittance results,"[2]; Urolithin A 0.1, RYOTO polyglyester L-7D (HLB 17.0) 50 parts by weight, heated 100° C. 3 min",C (the transmittance was less than 40%)
same,Transmittance results,"[2]; Urolithin A 0.1, RYOTO polyglyester L-7D (HLB 17.0) 50 parts by weight, heated 105° C. 3 min",A (the transmittance was 80% or greater)
same,Transmittance results,"[2]; Urolithin A 0.1, RYOTO polyglyester L-7D (HLB 17.0) 50 parts by weight, heated 120° C. 3 min",A (the transmittance was 80% or greater)
same,oil solubility,[3]; background statement,low
same,solubility in high-temperature vegetable oil or the like,[3]; background statement,not soluble
same,solubility in water,[3]; water at 30° C. (Patent Document 4),about 3.5 mg/L
same,Transmittance results,"[4]; Urolithin A 0.1, Decaglyn 1-LF (HLB 15.5) 5 parts by weight, heated 80° C. 3 min",C (the transmittance was less than 40%)
same,Transmittance results,[4]; [8],C (the transmittance was less than 40%)
same,Transmittance results,[4]; [9],B (the transmittance was 40% or greater and less than 80%)
same,Transmittance results,"[4]; Urolithin A 0.1, Decaglyn 1-MF (HLB 14.0) 5 parts by weight, heated 80° C. 3 min",C (the transmittance was less than 40%)
same,Transmittance results,"[4]; Urolithin A 0.1, Decaglyn 1-MF (HLB 14.0) 5 parts by weight, heated 100° C. 3 min",C (the transmittance was less than 40%)
same,Transmittance results,"[4]; Urolithin A 0.1, Decaglyn 1-MF (HLB 14.0) 5 parts by weight, heated 120° C. 3 min",B (the transmittance was 40% or greater and less than 80%)
same,Transmittance results,"[4]; Urolithin A 0.1, Decaglyn 1-OVF (HLB 12.0) 5 parts by weight, heated 80° C. 3 min",C (the transmittance was less than 40%)
same,Transmittance results,"[4]; Urolithin A 0.1, Decaglyn 1-OVF (HLB 12.0) 5 parts by weight, heated 100° C. 3 min",C (the transmittance was less than 40%)
same,Transmittance results,"[4]; Urolithin A 0.1, Decaglyn 1-OVF (HLB 12.0) 5 parts by weight, heated 120° C. 3 min",B (the transmittance was 40% or greater and less than 80%)
same,Transmittance results,"[4]; Urolithin A 0.1, RYOTO polyglyester L-7D (HLB 17.0) 5 parts by weight, heated 80° C. 3 min",C (the transmittance was less than 40%)
same,Transmittance results,[4]; [10],C (the transmittance was less than 40%)
same,Transmittance results,[4]; [11],A (the transmittance was 80% or greater)
same,Transmittance results,"[4]; Urolithin A 0.1, RYOTO polyglyester O-15D (HLB 13.0) 5 parts by weight, heated 80° C. 3 min",C (the transmittance was less than 40%)
same,Transmittance results,"[4]; Urolithin A 0.1, RYOTO polyglyester O-15D (HLB 13.0) 5 parts by weight, heated 100° C. 3 min",C (the transmittance was less than 40%)
same,Transmittance results,"[4]; Urolithin A 0.1, RYOTO polyglyester O-15D (HLB 13.0) 5 parts by weight, heated 120° C. 3 min",B (the transmittance was 40% or greater and less than 80%)
same,Transmittance results,"[4]; Urolithin A 0.1, RYOTO polyglyester O-50D (HLB 7) 5 parts by weight, heated 80° C. 3 min",C (the transmittance was less than 40%)
same,Transmittance results,"[4]; Urolithin A 0.1, RYOTO polyglyester O-50D (HLB 7) 5 parts by weight, heated 100° C. 3 min",C (the transmittance was less than 40%)
same,Transmittance results,"[4]; Urolithin A 0.1, RYOTO polyglyester O-50D (HLB 7) 5 parts by weight, heated 120° C. 3 min",C (the transmittance was less than 40%)
same,Transmittance results,"[4]; Urolithin A 0.1, Sugar ester S-1170 (HLB about 11) 5 parts by weight, heated 80° C. 3 min",C (the transmittance was less than 40%)
same,Transmittance results,"[4]; Urolithin A 0.1, Sugar ester S-1170 (HLB about 11) 5 parts by weight, heated 100° C. 3 min",C (the transmittance was less than 40%)
same,Transmittance results,"[4]; Urolithin A 0.1, Sugar ester S-1170 (HLB about 11) 5 parts by weight, heated 120° C. 3 min",C (the transmittance was less than 40%)
same,Transmittance results,"[5]; Urolithin A 0.2, Decaglyn 1-LF (HLB 15.5) 5 parts by weight",C (the transmittance was less than 40%)
same,Transmittance results,"[5]; Urolithin A 0.2, Decaglyn 1-LF (HLB 15.5) 10 parts by weight",B (the transmittance was 40% or greater and less than 80%)
same,Transmittance results,"[5]; Urolithin A 0.2, Decaglyn 1-LF (HLB 15.5) 50 parts by weight",A (the transmittance was 80% or greater)
same,Transmittance results,"[5]; Urolithin A 0.2, RYOTO polyglyester L-7D (HLB 17.0) 5 parts by weight",C (the transmittance was less than 40%)
same,Transmittance results,"[5]; Urolithin A 0.2, RYOTO polyglyester L-7D (HLB 17.0) 10 parts by weight",B (the transmittance was 40% or greater and less than 80%)
same,Transmittance results,"[5]; Urolithin A 0.2, RYOTO polyglyester L-7D (HLB 17.0) 50 parts by weight",A (the transmittance was 80% or greater)
same,Transmittance results,"[5]; Urolithin A 0.5, RYOTO polyglyester L-7D (HLB 17.0) 50 parts by weight",A (the transmittance was 80% or greater)
urolithin M8,Transmittance results,[1]; [7],A (the transmittance was 80% or greater)
"O=c1oc2cc(O)ccc2c2c(O)cc(O)cc12 [Urolithin M7, urolithin M7]",Transmittance results,[1]; [6],A (the transmittance was 80% or greater)
"O=c1oc2cc(O)ccc2c2ccccc12 [Urolithin B, urolithin B]",Transmittance results,"[1]; urolithin 1.0, RYOTO polyglyester L-7D (HLB 17.0) 50 parts by weight",A (the transmittance was 80% or greater)
"O=c1oc2cc(O)ccc2c2cc(O)ccc12 [Isourolithin A, isourolithin A]",Transmittance results,[1]; [7],B (the transmittance was 40% or greater and less than 80%)
